This is an account of results in patent US12121521B2, “Uses of salt-inducible kinase (SIK) inhibitors for treating osteoporosis” (The General Hospital Corporation, priority 2016, dated 2024).

What all share (test): ScanEDGE kinase panel (DiscoverX)
Holding throughout (assay type): binding

In one experiment the target is T1, PLK3 (Homo sapiens, UniProt Q9H4B4).
T1 construct: T7 phage fusion (most kinases) or DNA tag for qPCR (kinases made in HEK-293); purchased DiscoverX; host or cells: E. coli BL21-derived host (T7 phage) or HEK-293
T1 sequence (Q9H4B4 whole entry, the tested form may be a part): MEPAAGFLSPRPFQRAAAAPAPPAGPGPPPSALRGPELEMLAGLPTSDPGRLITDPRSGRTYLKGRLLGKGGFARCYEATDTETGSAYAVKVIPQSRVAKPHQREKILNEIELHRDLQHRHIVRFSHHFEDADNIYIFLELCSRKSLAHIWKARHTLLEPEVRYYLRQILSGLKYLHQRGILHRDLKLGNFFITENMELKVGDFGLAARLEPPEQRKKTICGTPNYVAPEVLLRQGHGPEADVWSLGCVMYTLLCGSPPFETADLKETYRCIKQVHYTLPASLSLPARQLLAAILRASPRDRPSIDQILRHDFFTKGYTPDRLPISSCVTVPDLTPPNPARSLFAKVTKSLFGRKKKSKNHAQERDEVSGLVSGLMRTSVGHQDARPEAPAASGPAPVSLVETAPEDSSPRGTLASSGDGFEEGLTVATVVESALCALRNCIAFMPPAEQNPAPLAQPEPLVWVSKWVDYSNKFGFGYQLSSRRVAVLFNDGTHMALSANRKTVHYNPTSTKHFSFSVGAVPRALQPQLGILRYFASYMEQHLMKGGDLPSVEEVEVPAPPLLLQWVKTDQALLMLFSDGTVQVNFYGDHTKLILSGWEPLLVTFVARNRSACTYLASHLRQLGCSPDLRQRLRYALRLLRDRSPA
The conditions noted are these: read-out: % of control activity at 71 nM. An outline of the steps:
(§1)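 qPCR of eluted kinase is the read-out. Kinase-tagged T7 phage came from E. coli BL21-derived hosts lysed at 32° C, or the kinase was made in HEK-293 cells and DNA-tagged. Compound was added from 40× DMSO stocks against ligand-coated, biotin-blocked beads.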

In the next experiment the target is T2, PAK4 (Homo sapiens, UniProt O96013).
T2 construct: T7 phage fusion (most kinases) or DNA tag for qPCR (kinases made in HEK-293); purchased DiscoverX; host or cells: E. coli BL21-derived host (T7 phage) or HEK-293
The following applies: read-out: % of control activity at 71 nM. Put shortly: as §1

In another experiment the target is T3, DCAMKL1 (Homo sapiens, UniProt O15075).
T3 construct: T7 phage fusion (most kinases) or DNA tag for qPCR (HEK-293-made kinases); purchased DiscoverX (Fremont, CA); host or cells: E. coli BL21-derived host (T7 phage) or HEK-293
T3 sequence (O15075 whole entry, the tested form may be a part): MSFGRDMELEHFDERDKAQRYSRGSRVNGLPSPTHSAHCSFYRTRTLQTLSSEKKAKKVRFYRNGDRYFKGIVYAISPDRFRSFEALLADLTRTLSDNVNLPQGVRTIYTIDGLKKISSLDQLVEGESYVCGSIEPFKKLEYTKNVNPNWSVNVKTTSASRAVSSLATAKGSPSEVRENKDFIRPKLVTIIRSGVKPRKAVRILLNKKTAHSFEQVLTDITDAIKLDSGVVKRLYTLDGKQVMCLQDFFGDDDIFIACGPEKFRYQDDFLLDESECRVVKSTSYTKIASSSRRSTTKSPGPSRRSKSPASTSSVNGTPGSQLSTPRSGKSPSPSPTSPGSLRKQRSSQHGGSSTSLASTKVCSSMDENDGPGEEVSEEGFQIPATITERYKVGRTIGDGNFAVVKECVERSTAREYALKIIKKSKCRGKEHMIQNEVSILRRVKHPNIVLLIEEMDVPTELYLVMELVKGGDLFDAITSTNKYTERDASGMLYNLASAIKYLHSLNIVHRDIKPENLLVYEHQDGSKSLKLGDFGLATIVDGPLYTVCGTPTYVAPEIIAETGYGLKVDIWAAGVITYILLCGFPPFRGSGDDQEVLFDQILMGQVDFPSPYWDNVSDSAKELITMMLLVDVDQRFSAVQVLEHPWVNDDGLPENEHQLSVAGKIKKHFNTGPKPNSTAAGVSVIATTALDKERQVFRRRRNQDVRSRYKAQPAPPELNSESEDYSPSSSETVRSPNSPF
The following applies: read-out: % of control activity at 71 nM. An outline of the steps: as §1

A further experiment addresses T4, ALK (Homo sapiens, UniProt Q9UM73).
T4 construct: T7 phage fusion (most kinases) or DNA tag for qPCR (HEK-293-made kinases); purchased DiscoverX (Fremont, CA); host or cells: E. coli BL21-derived host (T7 phage) or HEK-293
The following applies: read-out: % of control activity at 71 nM. An outline of the steps: as §1

For another experiment, the target named is T5, QSK (SIK3) (Homo sapiens, UniProt Q9Y2K2).
T5 construct: T7 phage fusion (most kinases) or DNA tag after HEK-293 expression; purchased DiscoverX (Fremont, CA), ScanEDGE; host or cells: T7 phage in E. coli BL21-derived host, or HEK-293
T5 sequence (Q9Y2K2 whole entry, the tested form may be a part): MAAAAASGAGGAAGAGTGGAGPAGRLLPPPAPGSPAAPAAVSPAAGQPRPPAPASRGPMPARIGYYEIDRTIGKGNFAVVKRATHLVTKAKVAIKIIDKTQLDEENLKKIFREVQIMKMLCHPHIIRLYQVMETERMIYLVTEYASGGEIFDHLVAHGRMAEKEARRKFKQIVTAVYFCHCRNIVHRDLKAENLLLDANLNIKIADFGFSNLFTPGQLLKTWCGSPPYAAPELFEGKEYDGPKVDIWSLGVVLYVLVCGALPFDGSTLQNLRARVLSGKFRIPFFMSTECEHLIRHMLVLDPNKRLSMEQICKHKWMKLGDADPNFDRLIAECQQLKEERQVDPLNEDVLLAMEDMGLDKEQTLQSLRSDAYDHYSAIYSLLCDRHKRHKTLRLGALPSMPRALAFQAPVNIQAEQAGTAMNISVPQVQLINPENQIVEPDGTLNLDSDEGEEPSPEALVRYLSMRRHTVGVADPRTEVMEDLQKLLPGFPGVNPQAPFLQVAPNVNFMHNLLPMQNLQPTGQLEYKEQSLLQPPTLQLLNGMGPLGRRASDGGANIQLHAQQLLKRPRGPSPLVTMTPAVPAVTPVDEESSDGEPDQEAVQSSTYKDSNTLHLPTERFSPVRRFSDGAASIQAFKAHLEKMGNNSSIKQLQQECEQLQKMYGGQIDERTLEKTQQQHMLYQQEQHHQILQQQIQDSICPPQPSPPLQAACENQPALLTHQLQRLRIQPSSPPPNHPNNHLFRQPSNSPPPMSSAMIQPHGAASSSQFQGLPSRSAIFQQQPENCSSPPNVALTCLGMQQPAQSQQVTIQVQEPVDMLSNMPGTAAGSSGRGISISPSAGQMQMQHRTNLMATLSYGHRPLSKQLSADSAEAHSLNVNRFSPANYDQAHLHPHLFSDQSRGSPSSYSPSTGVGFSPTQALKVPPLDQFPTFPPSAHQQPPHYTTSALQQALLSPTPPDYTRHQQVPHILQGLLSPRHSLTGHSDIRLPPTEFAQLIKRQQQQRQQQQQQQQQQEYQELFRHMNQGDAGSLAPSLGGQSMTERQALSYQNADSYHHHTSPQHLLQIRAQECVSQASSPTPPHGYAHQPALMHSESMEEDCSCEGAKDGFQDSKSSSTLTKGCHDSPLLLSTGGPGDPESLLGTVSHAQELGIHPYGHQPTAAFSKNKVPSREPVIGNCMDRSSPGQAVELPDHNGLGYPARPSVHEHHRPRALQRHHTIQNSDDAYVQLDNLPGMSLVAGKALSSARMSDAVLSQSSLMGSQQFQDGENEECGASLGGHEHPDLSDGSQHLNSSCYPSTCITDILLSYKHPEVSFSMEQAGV
The conditions noted are these: QSK refers to SIK3, read-out: % of control activity at 71 nM. Put shortly: as §1

A further experiment has as its target T6, LCK (Homo sapiens, UniProt P06239).
T6 construct: T7 phage fusion (most kinases) or DNA tag for qPCR (HEK-293-made kinases); purchased DiscoverX; host or cells: E. coli BL21-derived host (T7 phage) or HEK-293
The following applies: read-out: % of control activity at 71 nM. An outline of the steps:
as §1

The target of the next experiment is T7, ULK2 (Homo sapiens, UniProt Q8IYT8).
T7 construct: T7 phage fusion (most kinases) or DNA tag after HEK-293 expression; purchased DiscoverX (Fremont, CA), ScanEDGE; host or cells: T7 phage in E. coli BL21-derived host, or HEK-293
T7 sequence (Q8IYT8 whole entry, the tested form may be a part): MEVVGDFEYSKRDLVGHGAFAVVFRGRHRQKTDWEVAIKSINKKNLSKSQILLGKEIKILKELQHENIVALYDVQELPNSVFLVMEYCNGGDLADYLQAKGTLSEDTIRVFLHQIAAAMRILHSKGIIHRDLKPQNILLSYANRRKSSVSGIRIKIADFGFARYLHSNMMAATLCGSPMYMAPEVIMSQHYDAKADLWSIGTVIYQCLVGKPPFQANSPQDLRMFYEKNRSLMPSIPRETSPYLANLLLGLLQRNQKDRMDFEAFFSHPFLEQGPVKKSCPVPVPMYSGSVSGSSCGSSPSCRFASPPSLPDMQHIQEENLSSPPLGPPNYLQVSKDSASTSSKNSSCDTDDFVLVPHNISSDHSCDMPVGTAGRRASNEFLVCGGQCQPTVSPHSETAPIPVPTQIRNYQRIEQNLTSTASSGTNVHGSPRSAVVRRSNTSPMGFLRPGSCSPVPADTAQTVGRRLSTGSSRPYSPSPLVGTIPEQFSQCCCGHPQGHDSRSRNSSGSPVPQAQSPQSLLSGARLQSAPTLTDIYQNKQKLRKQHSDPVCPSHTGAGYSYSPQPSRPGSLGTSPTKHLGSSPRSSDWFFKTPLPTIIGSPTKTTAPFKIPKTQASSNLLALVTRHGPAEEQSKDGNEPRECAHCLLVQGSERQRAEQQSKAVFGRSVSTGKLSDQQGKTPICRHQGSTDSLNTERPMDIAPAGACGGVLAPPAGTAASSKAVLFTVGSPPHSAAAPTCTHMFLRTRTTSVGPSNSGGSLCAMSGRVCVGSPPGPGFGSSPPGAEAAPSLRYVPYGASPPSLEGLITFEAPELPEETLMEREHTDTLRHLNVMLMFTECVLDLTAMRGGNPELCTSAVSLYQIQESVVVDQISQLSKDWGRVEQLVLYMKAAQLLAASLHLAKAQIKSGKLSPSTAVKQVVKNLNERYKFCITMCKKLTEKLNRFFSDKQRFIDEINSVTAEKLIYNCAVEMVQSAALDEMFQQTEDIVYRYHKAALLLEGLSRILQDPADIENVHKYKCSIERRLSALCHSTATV
The conditions noted are these: read-out: % of control activity at 71 nM. Put shortly:
as §1

The target of the next experiment is T8, YANK3 (Homo sapiens, UniProt Q86UX6).
T8 construct: T7 phage fusion (most kinases) or DNA tag after HEK-293 expression; purchased DiscoverX (Fremont, CA), ScanEDGE; host or cells: T7 phage in E. coli BL21-derived host, or HEK-293
The conditions noted are these: read-out: % of control activity at 71 nM. Put shortly:
as §1

The target of the next experiment is T9, MELK (Homo sapiens, UniProt Q14680).
T9 construct: T7 phage fusion (most kinases) or DNA tag for qPCR (kinases made in HEK-293); purchased DiscoverX; host or cells: E. coli BL21-derived host (T7 phage) or HEK-293
The following applies: read-out: % of control activity at 71 nM. Put shortly:
as §1

The target in another experiment is T10, PDGFRB (Homo sapiens, UniProt P09619).
T10 construct: T7 phage fusion (most kinases) or DNA tag for qPCR (kinases made in HEK-293); purchased DiscoverX; host or cells: E. coli BL21-derived host (T7 phage) or HEK-293
The following applies: read-out: % of control activity at 71 nM. An outline of the steps:
as §1

Another experiment concerns the target T11, MKNK1 (Homo sapiens, UniProt Q9BUB5).
T11 construct: T7 phage fusion (most kinases) or DNA tag for qPCR (kinases made in HEK-293); purchased DiscoverX; host or cells: E. coli BL21-derived host (T7 phage) or HEK-293
The following applies: read-out: % of control activity at 71 nM. Put shortly:
as §1

The target of another experiment is T12, PCTK1 (Homo sapiens, UniProt Q00536).
T12 construct: T7 phage fusion (most kinases) or DNA tag for qPCR (kinases made in HEK-293); purchased DiscoverX; host or cells: E. coli BL21-derived host (T7 phage) or HEK-293
The conditions noted are these: read-out: % of control activity at 71 nM. An outline of the steps:
as §1

Another experiment addresses T13, INSR (Homo sapiens, UniProt P06213).
T13 construct: T7 phage fusion (most kinases) or DNA tag for qPCR (HEK-293-made kinases); purchased DiscoverX; host or cells: E. coli BL21-derived host (T7 phage) or HEK-293
The following applies: read-out: % of control activity at 71 nM. An outline of the steps: as §1

The next experiment addresses T14, AKT1 (Homo sapiens, UniProt P31749).
T14 construct: T7 phage fusion (most kinases) or DNA tag for qPCR (HEK-293-made kinases); purchased DiscoverX (Fremont, CA); host or cells: E. coli BL21-derived host (T7 phage) or HEK-293
The following applies: read-out: % of control activity at 71 nM. An outline of the steps: as §1

The target in the next experiment is T15, ERBB2 (Homo sapiens, UniProt P04626).
T15 construct: T7 phage fusion (most kinases) or DNA tag for qPCR (HEK-293-made kinases); purchased DiscoverX; host or cells: E. coli BL21-derived host (T7 phage) or HEK-293
The following applies: read-out: % of control activity at 71 nM. An outline of the steps:
as §1

Another experiment addresses T16, JNK2 (Homo sapiens, UniProt P45984).
T16 construct: T7 phage fusion (most kinases) or DNA tag for qPCR (HEK-293-made kinases); purchased DiscoverX; host or cells: E. coli BL21-derived host (T7 phage) or HEK-293
The conditions noted are these: read-out: % of control activity at 71 nM. An outline of the steps:
as §1

The target in another experiment is T17, PKAC-alpha (Homo sapiens, UniProt P17612).
T17 construct: T7 phage fusion (most kinases) or DNA tag for qPCR (kinases made in HEK-293); purchased DiscoverX; host or cells: E. coli BL21-derived host (T7 phage) or HEK-293
The following applies: read-out: % of control activity at 71 nM. An outline of the steps: as §1

In another experiment the target is T18, MEK2 (Homo sapiens, UniProt P36507).
T18 construct: T7 phage fusion (most kinases) or DNA tag for qPCR (kinases made in HEK-293); purchased DiscoverX; host or cells: E. coli BL21-derived host (T7 phage) or HEK-293
The conditions noted are these: read-out: % of control activity at 71 nM. Put shortly:
as §1

The next experiment has as its target T19, p38-beta (Homo sapiens, UniProt Q15759).
T19 construct: T7 phage fusion (most kinases) or DNA tag for qPCR (kinases made in HEK-293); purchased DiscoverX; host or cells: E. coli BL21-derived host (T7 phage) or HEK-293
The conditions noted are these: read-out: % of control activity at 71 nM. Put shortly:
as §1

For a further experiment, the target named is T20, TGFBR1 (Homo sapiens, UniProt P36897).
T20 construct: T7 phage fusion (most kinases) or DNA tag after HEK-293 expression; purchased DiscoverX (Fremont, CA), ScanEDGE; host or cells: T7 phage in E. coli BL21-derived host, or HEK-293
The conditions noted are these: read-out: % of control activity at 71 nM. An outline of the steps: as §1

The target of a further experiment is T21, SRC (Homo sapiens, UniProt P12931).
T21 construct: T7 phage fusion (most kinases) or DNA tag after HEK-293 expression; purchased DiscoverX (Fremont, CA), ScanEDGE; host or cells: T7 phage in E. coli BL21-derived host, or HEK-293
T21 sequence (P12931 whole entry, the tested form may be a part): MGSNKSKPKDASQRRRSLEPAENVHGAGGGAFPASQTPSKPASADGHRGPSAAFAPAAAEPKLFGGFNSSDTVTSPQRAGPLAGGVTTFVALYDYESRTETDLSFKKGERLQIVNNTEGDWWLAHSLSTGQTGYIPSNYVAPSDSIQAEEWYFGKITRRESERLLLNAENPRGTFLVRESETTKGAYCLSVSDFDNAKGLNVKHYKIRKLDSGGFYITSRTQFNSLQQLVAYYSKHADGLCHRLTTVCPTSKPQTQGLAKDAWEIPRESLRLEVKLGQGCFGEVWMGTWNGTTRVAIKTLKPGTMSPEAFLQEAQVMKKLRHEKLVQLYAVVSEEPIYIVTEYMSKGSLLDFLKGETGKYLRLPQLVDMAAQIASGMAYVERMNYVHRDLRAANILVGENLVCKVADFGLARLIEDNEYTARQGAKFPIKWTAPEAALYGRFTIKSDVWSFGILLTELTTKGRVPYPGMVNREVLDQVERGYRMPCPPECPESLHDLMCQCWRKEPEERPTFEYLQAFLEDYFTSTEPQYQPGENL
The following applies: read-out: % of control activity at 71 nM. An outline of the steps: as §1

The target of another experiment is T22, PAK2 (Homo sapiens, UniProt Q13177).
T22 construct: T7 phage fusion (most kinases) or DNA tag for qPCR (kinases made in HEK-293); purchased DiscoverX; host or cells: E. coli BL21-derived host (T7 phage) or HEK-293
The conditions noted are these: read-out: % of control activity at 71 nM. An outline of the steps: as §1

T6 sequence (P06239 whole entry, the tested form may be a part): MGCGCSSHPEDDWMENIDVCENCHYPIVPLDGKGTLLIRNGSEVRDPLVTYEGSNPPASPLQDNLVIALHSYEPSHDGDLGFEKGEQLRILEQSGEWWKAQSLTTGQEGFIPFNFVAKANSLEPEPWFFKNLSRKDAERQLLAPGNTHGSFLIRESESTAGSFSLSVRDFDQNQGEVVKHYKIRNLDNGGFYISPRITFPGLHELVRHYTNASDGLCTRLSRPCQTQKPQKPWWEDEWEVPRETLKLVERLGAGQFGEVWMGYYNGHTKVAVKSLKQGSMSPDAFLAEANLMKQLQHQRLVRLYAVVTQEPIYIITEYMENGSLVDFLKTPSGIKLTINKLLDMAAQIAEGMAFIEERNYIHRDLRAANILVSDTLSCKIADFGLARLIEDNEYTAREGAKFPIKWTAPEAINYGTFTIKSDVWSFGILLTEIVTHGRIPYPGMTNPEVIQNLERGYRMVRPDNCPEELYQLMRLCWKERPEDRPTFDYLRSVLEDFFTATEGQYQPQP

In the case of `COc1ccc(N2C(=O)N(c3c(C)cccc3C)Cc3cnc(Nc4ccc(C5CCN(C)CC5)c(OC)c4)nc32)c(OC)c1` [YKL-05-093], the remaining binding at 0.071 µM on PLK3 was found to be 90%; at PAK4 it was 88%; on DCAMKL1 it was 89%; at ALK, 23%; on QSK (SIK3), 5.3%; on LCK it was 0.75%. Moreover, the remaining binding at 0.071 µM on ULK2 turned out to be 31%; at YANK3, 95%; on MELK, 36%; at PDGFRB, 0.35%; at MKNK1, 76%; at PCTK1, 91%. For the same compound, the remaining binding at 0.071 µM amounted to 56% on INSR; 92% on AKT1; 3.5% at ERBB2; 89% on JNK2; 100% at PKAC-alpha; 12% on MEK2. Further, the remaining binding at 0.071 µM on p38-beta worked out at 47%; on TGFBR1 it was 90%; on SRC, 0%; at PAK2, 75%.
